Reference: ChEMBL document CHEMBL5252509, “In depth analysis of kinase cross screening data to identify chemical starting points for inhibition of the Nek family of kinases” (Medchemcomm, 2018)

What was measured:
[1] = target: Serine/threonine-protein kinase Nek7 (Homo sapiens) (UniProt Q8TDX7); test: Inhibition of NEK7 (unknown origin) at 100 nM relative to control
[2] = target: T1, Serine/threonine-protein kinase Nek9 (Homo sapiens) (UniProt Q8TD19); test: Inhibition of NEK9 (unknown origin) at 1 uM relative to control
T1 sequence (whole entry): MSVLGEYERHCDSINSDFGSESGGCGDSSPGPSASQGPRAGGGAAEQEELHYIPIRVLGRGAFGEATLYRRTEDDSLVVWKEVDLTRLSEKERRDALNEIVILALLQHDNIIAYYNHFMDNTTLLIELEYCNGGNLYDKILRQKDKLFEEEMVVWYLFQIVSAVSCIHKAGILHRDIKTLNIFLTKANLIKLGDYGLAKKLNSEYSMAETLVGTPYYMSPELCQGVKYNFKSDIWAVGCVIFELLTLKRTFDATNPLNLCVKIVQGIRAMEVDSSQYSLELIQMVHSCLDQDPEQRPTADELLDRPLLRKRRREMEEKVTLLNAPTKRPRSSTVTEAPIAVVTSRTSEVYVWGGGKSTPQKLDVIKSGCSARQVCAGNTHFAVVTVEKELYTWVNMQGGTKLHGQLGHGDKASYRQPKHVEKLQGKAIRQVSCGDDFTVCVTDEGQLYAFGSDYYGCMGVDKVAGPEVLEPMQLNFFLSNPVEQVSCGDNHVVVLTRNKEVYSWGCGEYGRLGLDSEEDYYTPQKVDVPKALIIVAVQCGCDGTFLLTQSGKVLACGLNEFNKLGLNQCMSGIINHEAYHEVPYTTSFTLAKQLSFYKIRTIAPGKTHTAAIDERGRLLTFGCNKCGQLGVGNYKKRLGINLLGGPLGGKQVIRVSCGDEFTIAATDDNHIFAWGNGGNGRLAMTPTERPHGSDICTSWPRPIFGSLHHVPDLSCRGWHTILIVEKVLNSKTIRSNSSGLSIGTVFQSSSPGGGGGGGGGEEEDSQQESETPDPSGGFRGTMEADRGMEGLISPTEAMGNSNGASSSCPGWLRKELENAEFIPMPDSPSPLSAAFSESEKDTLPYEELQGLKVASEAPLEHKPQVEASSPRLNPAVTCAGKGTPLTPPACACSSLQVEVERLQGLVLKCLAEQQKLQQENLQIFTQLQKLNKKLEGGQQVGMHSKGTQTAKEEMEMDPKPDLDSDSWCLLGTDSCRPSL

[3] = target: Serine/threonine-protein kinase Nek7 (Homo sapiens) (UniProt Q8TDX7); test: Inhibition of NEK7 (unknown origin) at 1 uM relative to control
[4] = target: T2, Serine/threonine-protein kinase Nek2 (Homo sapiens) (UniProt P51955); test: Inhibition of NEK2 (unknown origin) at 1 uM relative to control
T2 sequence (whole entry): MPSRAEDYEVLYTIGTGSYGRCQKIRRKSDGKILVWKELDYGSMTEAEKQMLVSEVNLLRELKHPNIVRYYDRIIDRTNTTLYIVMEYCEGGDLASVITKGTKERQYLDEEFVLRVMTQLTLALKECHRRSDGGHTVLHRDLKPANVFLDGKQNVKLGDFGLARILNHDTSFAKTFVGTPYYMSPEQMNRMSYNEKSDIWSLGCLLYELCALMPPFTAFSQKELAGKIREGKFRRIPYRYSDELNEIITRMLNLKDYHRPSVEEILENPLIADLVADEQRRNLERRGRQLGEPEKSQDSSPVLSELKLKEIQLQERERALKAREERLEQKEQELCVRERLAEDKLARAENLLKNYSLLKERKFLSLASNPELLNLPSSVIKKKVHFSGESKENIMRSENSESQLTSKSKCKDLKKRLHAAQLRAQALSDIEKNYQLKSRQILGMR

[5] = target: T2, Serine/threonine-protein kinase Nek2 (Homo sapiens); test: Inhibition of NEK2 (unknown origin) at 100 nM relative to control
[6] = target: T3, Serine/threonine-protein kinase Nek1 (Homo sapiens) (UniProt Q96PY6); test: Inhibition of NEK1 (unknown origin) at 100 nM relative to control
T3 sequence (whole entry): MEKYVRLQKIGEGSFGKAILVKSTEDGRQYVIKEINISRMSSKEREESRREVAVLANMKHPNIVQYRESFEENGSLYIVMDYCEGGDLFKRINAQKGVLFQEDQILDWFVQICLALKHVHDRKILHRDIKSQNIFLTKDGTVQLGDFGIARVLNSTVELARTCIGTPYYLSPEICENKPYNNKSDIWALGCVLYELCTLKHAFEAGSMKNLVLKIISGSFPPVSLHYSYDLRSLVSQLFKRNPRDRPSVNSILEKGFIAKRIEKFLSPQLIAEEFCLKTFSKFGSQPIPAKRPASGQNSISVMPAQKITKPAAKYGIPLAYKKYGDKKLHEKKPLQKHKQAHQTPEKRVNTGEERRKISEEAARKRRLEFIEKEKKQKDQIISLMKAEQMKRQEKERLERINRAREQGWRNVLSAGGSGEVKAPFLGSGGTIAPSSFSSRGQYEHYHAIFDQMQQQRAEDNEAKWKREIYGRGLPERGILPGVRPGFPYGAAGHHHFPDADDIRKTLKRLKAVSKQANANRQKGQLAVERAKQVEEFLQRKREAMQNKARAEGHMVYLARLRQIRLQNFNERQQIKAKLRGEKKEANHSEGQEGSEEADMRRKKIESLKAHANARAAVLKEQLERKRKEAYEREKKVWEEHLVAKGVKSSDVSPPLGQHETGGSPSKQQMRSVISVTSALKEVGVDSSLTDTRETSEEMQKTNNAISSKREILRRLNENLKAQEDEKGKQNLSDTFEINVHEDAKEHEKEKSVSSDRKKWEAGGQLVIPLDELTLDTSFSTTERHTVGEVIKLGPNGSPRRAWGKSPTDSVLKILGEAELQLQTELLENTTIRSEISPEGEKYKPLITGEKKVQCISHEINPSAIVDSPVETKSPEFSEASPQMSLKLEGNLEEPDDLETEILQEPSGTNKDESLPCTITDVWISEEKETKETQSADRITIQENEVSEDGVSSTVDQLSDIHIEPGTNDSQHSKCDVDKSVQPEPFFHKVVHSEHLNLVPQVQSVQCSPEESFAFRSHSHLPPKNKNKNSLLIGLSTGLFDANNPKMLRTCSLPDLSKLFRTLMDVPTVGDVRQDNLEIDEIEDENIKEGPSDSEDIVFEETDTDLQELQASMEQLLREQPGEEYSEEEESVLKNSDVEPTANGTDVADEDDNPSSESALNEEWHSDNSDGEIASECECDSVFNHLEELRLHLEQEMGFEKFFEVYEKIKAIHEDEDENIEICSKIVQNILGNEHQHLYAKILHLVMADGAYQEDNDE

[7] = target: Serine/threonine-protein kinase Nek6 (Homo sapiens) (UniProt Q9HC98); test: Inhibition of NEK6 (unknown origin) at 100 nM relative to control
[8] = target: Serine/threonine-protein kinase Nek6 (Homo sapiens) (UniProt Q9HC98); test: Inhibition of NEK6 (unknown origin) at 1 uM relative to control
[9] = target: T1, Serine/threonine-protein kinase Nek9 (Homo sapiens); test: Inhibition of NEK9 (unknown origin) at 100 nM relative to control
[10] = target: Serine/threonine-protein kinase Nek7 (Homo sapiens) (UniProt Q8TDX7); test: Inhibition of NEK7 (unknown origin) at 3 uM relative to control
[11] = target: Serine/threonine-protein kinase Nek4 (Homo sapiens) (UniProt P51957); test: Inhibition of NEK4 (unknown origin) at 100 nM relative to control
[12] = target: Mitogen-activated protein kinase kinase kinase 8 (Homo sapiens, UniProt P41279); test: Inhibition of MAP3K8 (unknown origin)
[13] = target: Serine/threonine-protein kinase Nek3 (Homo sapiens, UniProt P51956); test: Inhibition of NEK3 (unknown origin) assessed as dissociation constant
[14] = target: Serine/threonine-protein kinase Nek1 (Homo sapiens, UniProt Q96PY6); test: Inhibition of NEK1 (unknown origin) assessed as dissociation constant
[15] = target: T4, Serine/threonine-protein kinase Nek9 (Homo sapiens, UniProt Q8TD19); test: Inhibition of NEK9 (unknown origin)
[16] = target: T4, Serine/threonine-protein kinase Nek9; test: Inhibition of NEK9 (unknown origin) assessed as dissociation constant
[17] = target: Serine/threonine-protein kinase Nek4 (Homo sapiens) (UniProt P51957); test: Inhibition of NEK4 (unknown origin) at 10 uM relative to control
[18] = target: Serine/threonine-protein kinase Nek2 (Homo sapiens, UniProt P51955); test: Inhibition of NEK2 (unknown origin) assessed as dissociation constant
[19] = target: T5, Serine/threonine-protein kinase Nek3 (Homo sapiens) (UniProt P51956); test: Inhibition of NEK3 (unknown origin) at 10 uM relative to control
T5 sequence (whole entry): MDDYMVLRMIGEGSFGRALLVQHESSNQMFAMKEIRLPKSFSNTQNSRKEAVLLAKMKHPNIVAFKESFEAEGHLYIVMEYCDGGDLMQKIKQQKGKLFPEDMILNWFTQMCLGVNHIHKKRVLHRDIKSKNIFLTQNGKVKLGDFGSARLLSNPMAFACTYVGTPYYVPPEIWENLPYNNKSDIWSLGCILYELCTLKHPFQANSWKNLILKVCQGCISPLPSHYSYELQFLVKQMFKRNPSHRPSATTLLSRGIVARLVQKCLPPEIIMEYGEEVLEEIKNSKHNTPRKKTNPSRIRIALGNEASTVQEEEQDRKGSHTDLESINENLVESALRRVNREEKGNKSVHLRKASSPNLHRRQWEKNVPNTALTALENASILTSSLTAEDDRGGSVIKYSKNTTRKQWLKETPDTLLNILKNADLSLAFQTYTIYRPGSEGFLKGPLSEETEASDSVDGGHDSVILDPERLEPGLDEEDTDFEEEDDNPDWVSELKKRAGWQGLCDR

[20] = target: T6, Serine/threonine-protein kinase Nek5 (Homo sapiens) (UniProt Q6P3R8); test: Inhibition of NEK5 (unknown origin) at 10 uM relative to control
T6 sequence (whole entry): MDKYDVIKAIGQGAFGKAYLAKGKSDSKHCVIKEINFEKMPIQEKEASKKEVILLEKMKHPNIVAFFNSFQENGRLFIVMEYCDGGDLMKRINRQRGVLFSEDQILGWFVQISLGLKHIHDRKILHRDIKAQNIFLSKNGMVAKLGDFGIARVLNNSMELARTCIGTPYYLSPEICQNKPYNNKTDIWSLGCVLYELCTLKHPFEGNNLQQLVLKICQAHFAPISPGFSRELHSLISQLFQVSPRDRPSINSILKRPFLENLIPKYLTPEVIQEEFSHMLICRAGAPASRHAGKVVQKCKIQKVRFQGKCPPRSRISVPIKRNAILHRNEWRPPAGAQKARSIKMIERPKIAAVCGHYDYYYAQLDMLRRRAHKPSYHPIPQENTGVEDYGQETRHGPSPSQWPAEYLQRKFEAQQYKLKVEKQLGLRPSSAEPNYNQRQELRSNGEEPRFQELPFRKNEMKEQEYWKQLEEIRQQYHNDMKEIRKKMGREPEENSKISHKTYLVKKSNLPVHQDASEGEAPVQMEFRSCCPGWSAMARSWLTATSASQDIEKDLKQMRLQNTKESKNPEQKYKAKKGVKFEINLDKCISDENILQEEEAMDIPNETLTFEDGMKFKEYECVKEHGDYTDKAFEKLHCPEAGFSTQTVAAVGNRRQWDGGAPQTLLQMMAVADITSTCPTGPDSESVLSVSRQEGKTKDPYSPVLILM

[21] = target: Serine/threonine-protein kinase Nek7 (Homo sapiens) (UniProt Q8TDX7); test: Inhibition of NEK7 (unknown origin) at 10 uM relative to control
[22] = target: Serine/threonine-protein kinase Nek6 (Homo sapiens) (UniProt Q9HC98); test: Inhibition of NEK6 (unknown origin) at 10 uM relative to control
[23] = target: T1, Serine/threonine-protein kinase Nek9 (Homo sapiens); test: Inhibition of NEK9 (unknown origin) at 10 uM relative to control
[24] = target: T2, Serine/threonine-protein kinase Nek2 (Homo sapiens); test: Inhibition of NEK2 (unknown origin) at 10 uM relative to control

Chain of Serine/threonine-protein kinase Nek4 (Homo sapiens) (P51957 whole entry, looked up): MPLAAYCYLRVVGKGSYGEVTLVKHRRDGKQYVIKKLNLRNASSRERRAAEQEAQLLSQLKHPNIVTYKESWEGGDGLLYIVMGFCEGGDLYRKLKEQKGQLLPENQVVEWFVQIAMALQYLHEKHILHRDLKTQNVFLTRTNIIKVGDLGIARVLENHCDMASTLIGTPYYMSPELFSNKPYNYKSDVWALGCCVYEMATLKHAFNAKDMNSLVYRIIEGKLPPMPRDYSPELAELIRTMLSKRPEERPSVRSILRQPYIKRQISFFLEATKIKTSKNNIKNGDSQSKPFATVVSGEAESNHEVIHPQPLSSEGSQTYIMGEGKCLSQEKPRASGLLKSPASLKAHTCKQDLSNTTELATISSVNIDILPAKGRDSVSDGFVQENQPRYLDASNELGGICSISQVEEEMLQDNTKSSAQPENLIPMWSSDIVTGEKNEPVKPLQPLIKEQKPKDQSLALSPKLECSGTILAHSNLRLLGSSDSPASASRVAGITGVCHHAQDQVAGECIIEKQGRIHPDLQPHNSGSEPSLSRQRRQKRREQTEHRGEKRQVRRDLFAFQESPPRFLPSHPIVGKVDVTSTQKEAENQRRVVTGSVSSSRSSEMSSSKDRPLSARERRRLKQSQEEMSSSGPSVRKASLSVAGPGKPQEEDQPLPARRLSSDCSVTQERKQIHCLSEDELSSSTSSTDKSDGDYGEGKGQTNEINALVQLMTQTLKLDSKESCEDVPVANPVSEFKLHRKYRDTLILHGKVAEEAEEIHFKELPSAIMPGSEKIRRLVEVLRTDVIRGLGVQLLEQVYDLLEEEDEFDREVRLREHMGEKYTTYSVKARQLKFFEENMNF
Chain of Serine/threonine-protein kinase Nek7 (Homo sapiens) (Q8TDX7 whole entry, looked up): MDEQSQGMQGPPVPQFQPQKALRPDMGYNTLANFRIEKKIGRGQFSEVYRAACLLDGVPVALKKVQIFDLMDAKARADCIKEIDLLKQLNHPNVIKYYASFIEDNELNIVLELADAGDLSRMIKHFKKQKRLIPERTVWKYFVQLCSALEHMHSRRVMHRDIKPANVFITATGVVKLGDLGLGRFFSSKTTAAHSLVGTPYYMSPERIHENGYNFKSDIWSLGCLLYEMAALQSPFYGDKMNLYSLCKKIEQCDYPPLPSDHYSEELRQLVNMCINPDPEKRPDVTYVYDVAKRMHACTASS
Chain of Serine/threonine-protein kinase Nek6 (Homo sapiens) (Q9HC98 whole entry): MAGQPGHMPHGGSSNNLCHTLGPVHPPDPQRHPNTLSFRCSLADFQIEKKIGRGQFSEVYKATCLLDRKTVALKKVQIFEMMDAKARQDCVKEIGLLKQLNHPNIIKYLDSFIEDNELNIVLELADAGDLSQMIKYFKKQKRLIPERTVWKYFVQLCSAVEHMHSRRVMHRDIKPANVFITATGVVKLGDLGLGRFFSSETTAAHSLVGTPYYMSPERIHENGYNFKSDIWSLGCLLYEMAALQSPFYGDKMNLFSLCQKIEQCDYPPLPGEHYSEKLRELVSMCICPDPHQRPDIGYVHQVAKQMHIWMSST
Chain of Mitogen-activated protein kinase kinase kinase 8 (P41279 whole entry): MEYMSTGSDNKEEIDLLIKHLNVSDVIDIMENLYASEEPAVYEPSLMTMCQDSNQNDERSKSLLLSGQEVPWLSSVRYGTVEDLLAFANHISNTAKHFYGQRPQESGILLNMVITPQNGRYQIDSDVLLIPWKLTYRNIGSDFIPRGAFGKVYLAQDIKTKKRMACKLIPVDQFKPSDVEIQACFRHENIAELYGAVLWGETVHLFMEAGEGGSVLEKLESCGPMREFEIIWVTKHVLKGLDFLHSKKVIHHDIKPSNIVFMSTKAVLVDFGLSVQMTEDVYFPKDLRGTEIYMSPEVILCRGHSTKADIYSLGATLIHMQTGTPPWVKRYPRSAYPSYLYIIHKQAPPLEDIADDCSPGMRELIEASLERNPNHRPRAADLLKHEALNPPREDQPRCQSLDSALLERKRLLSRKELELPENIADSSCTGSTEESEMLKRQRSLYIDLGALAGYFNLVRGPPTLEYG

COc1cc(Nc2ncc3c(C)nc(-c4cccc(Oc5ccccc5)c4)n3n2)cc(OC)c1OC
inhibition [1]: 4%
inhibition [2]: -1%
inhibition [3]: 2%
inhibition [4]: 32%
inhibition [5]: 7%
inhibition [6]: 3%
inhibition [7]: 29%
inhibition [8]: 81%
inhibition [9]: 3%

COCCOc1cc2c(-n3nc(-c4ccccn4)nc3N)ncnc2cc1OC
inhibition [10]: 78%

Ic1ccc(Oc2cncc3sc(-c4nn[nH]n4)cc23)cc1
inhibition [11]: 47.5%

NC(=O)c1ccc(-c2ccc(Oc3cncc4sc(-c5nn[nH]n5)cc34)cc2)cc1
inhibition [11]: 89.9%
IC50 [12]: 150 nM

N#CCNC(=O)c1ccc(-c2ccnc(Nc3ccc(N4CCOCC4)cc3)n2)cc1 [MOMELOTINIB]
Kd [13]: < 100 nM
Kd [14]: < 100 nM
IC50 [15]: 100 nM
Kd [16]: < 100 nM

CCCS(=O)(=O)Nc1ccc(F)c(C(=O)c2c[nH]c3ncc(-c4ccc(Cl)cc4)cc23)c1F [VEMURAFENIB]
% control [17]: 71%
Kd [18]: 5000 nM
% control [19]: 69%
% control [20]: 100%
% control [21]: 59%
% control [22]: 91%
% control [23]: 66%
% control [24]: 49%

COc1cc(Nc2ncc3c(C)nc(-c4cccc(C(F)(F)F)c4)n3n2)cc(OC)c1OC
inhibition [1]: 6%
inhibition [2]: 86%
inhibition [3]: 10%
inhibition [4]: 38%
inhibition [5]: 8%
inhibition [6]: 5%
inhibition [7]: 4%
inhibition [8]: 9%
inhibition [9]: 55%
